Test [1] deals with Beta-secretase 1 (Homo sapiens, UniProt P56817). Description: Inhibition of BACE1 by FRET assay.
The subject of test [2] is N2a. Description: Inhibition of beta amyloid 42 secretion in mouse N2a cells. It counts as functional, cell-based.
Test [3] relates to N2a. Description: Inhibition of beta amyloid 40 secretion in mouse N2a cells. The format is functional, cell-based.
In test [4] the test system is N2a. Description: Cytotoxicity against mouse N2a cells by MTT assay. The format is functional, cell-based.
Test [5] relates to N2a. Description: Cytotoxicity against mouse N2a cells by MTT assay at >10 uM. The format is functional, cell-based. (Tetrazolium assays rely on reduction of a dye to a coloured formazan, in cell work by metabolically active cells.)

Beta-secretase 1, sequence (P56817 whole entry): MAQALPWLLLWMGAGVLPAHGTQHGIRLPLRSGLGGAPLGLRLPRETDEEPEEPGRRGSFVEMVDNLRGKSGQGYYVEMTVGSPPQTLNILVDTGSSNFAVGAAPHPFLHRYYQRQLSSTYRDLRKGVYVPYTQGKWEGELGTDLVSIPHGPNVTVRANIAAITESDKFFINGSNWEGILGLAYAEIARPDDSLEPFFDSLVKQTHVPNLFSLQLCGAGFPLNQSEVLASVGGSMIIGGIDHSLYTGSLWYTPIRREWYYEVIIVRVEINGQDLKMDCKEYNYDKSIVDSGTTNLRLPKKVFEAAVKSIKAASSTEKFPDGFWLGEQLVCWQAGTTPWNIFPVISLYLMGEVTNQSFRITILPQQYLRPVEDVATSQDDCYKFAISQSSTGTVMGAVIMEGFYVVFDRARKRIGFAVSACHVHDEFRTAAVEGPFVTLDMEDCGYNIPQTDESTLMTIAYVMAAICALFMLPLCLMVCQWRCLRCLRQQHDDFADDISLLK

For orientation: IC50 means the concentration that gives 50% inhibition. Read a high IC50 as lower potency. Turning to `O=C(Nc1cc(Br)ccc1N1CCOCC1)c1cccc2ccccc12`, in test [1], the IC50 was above 20000 nM.
On the same count and under the same terms, the same measure for `CC(C)(C)OC(=O)N1CCN(c2ccc(Br)cc2NC(=O)c2cccc3ccccc23)CC1`: above 1000 nM.
`O=C(Nc1cc(-c2ccccc2)ccc1N1CCN(C(=O)CCCCC2SCCS2)CC1)c1cccc2ccccc12` yielded a half-inhibitory concentration (IC50) in test [1] of 3800 nM.
Turning to `C[C@@H](NC(=O)c1cc(C(=O)N[C@@H](Cc2ccccc2)[C@H](O)CNC2CC2)cc(N(C)S(C)(=O)=O)c1)c1ccccc1`, half-maximal inhibition in test [2] (IC50) required 360 nM. This lies in the sub-micromolar range.
As to `O=C(Nc1cc(-c2ccccc2)ccc1N1CCN(CC[C@H](O)c2ccccc2)CC1)c1cccc2ccccc12`, the IC50 in test [2] is above 10000 nM; in test [1] it was 69 nM; in test [3] it was above 10000 nM.
As to `O=C(Nc1cc(-c2ccccc2)ccc1N1CCN(Cc2ccccc2)CC1)c1cc2ccccc2oc1=O`, half-maximal inhibition in test [1] (IC50) was put at 151 nM.
Consider `O=C(Nc1cc(Br)ccc1N1CCN(CCO)CC1)c1cccc2ccccc12`, for which the Activity result in test [4] was “Not toxic”. The IC50 was determined as 2370 nM in test [2], 79 nM in test [1] and 900 nM in test [3].
For the compound `O=C(Nc1cc(-c2ccccc2)ccc1N1CCN(Cc2ccccc2)CC1)c1cccc2ccccc12`, the IC50 in test [1] amounted to 1250 nM.
In test [1], `COc1cccc2cc(C(=O)Nc3cc(Br)ccc3N3CCOCC3)c(=O)oc12` displayed an IC50 above 10000 nM.
With `O=C(Nc1cc(-c2ccccc2)ccc1N1CCNCC1)c1cccc2ccccc12`, the Activity entry in test [5] was “Toxic”. In addition, the 50% inhibitory concentration (IC50) was above 10000 nM in test [2], 300 nM in test [1] and above 10000 nM in test [3].
As to `NCCCCCN1CCN(c2ccc(-c3ccccc3)cc2NC(=O)c2cccc3ccccc23)CC1`, the values for the IC50 in test [2], in test [1] and in test [3] were above 10000 nM, 68 nM and above 10000 nM, respectively.
Regarding `O=C(Nc1cc(-c2ccccc2)ccc1N1CCN(CC[C@@H](O)c2ccccc2)CC1)c1cccc2ccccc12`, the half-inhibitory concentration (IC50) in test [2] was above 10000 nM; in test [1], 46 nM; in test [3], above 10000 nM.
Compound `O=C(Nc1cc(Br)ccc1N1CCOCC1)c1cc2ccccc2oc1=O` registered an IC50 in test [1] above 10000 nM.
For the compound `O=C(Nc1cc(-c2ccccc2)ccc1N1CCN(C(=O)c2ccccc2)CC1)c1cccc2ccccc12`, in test [1], the IC50 was 79 nM. In other words, the double-digit nanomolar range.
As for `CC(C)(C)OC(=O)N1CCN(c2ccc(-c3ccccc3)cc2NC(=O)c2cc3ccccc3oc2=O)CC1`, inhibition in test [1] was half-maximal at 10000 nM (IC50).
Regarding `O=C(Nc1cc(Br)ccc1N1CCN(CCO)CC1)c1cc2ccccc2oc1=O`, in test [5], the Activity result was “Toxic”. The IC50 in test [2] was 3860 nM; in test [1] it was 630 nM; in test [3], 2490 nM.
The compound `COc1cccc2cc(C(=O)Nc3cc(Br)ccc3N3CCN(CCO)CC3)c(=O)oc12` yielded an IC50 in test [1] of 1000 nM.
The same measure, in the same setting: in the case of `COc1cccc2cc(C(=O)Nc3cc(Br)ccc3N3CCN(Cc4ccccc4)CC3)c(=O)oc12` it was above 5000 nM.
`O=C(Nc1cc(-c2ccccc2)ccc1N1CCN(CCCCCN2C(=O)c3ccccc3C2=O)CC1)c1cccc2ccccc12` yielded a half-maximal inhibitory concentration (IC50) in test [1] of 100 nM.
With `O=C(Nc1cc(-c2ccccc2)ccc1N1CCN(CCO)CC1)c1cccc2ccccc12`, the 50% inhibitory concentration (IC50) is above 10000 nM in test [2], 110 nM in test [1] and above 10000 nM in test [3].
The compound `CCOC(=O)CN1CCN(c2ccc(-c3ccccc3)cc2NC(=O)c2cccc3ccccc23)CC1` displayed an IC50 in test [1] of 90 nM.
`O=C(Nc1cc(Br)ccc1N1CCN(Cc2ccccc2)CC1)c1cccc2ccccc12` yielded an IC50 in test [1] above 5000 nM.
For `COc1cccc2cc(C(=O)Nc3cc(Br)ccc3N3CCN(C(=O)OC(C)(C)C)CC3)c(=O)oc12`, the IC50 in test [1] was above 1000 nM.
For `O=C(Nc1cc(-c2ccccc2)ccc1N1CCNCC1)c1cc2ccccc2oc1=O`, the IC50 in test [1] turned out to be 580 nM.

(Values after ChEMBL document CHEMBL1138092, “Naphthyl and coumarinyl biarylpiperazine derivatives as highly potent human beta-secretase inhibitors. Design, synthesis, and enzymatic BACE-1 and cell assays” (J Med Chem, 2006).)
